Laboratory results: the CheMixHub viscosity set
Where “and” joins values, the source holds several entries; their conditions need not be identical. Equal values may be shown once.

How the values were obtained:
[1] = xn = mol fraction of the nth substance listed

C1CCC2=[NH+]CCCN2CC1.c1c[n-]cn1
Settings	viscosity [mPa·s]
298.15 K, 100 kPa	34.34

C1CCCCCC1
Settings	viscosity [mPa·s]
303.15 K, 101 kPa	1.239

CC(=O)O
Settings	viscosity
293.15 K, 101.32 kPa	1.226 mPa·s
293.15 K, 101.33 kPa	1.226 mPa·s and 1.222 mPa·s
298.15 K, 101.3 kPa	1.155 mPa·s and 1.27 mPa·s
303.15 K, 100 kPa	0.982 mPa·s
303.15 K, 101.33 kPa	1.346 mPa·s and 0.98 mPa·s
308.15 K, 101.3 kPa	1.08 mPa·s
308.15 K, 101.32 kPa	0.9795 mPa·s
313.15 K, 101.3 kPa	0.931 mPa·s
318.15 K, 101.32 kPa	0.8536 mPa·s
323.15 K, 101.3 kPa	0.823 mPa·s and 0.883 mPa·s

CC1CCCC(C)C1=O (stereo unspecified)
100 kPa
Settings	viscosity [mPa·s]
303.15 K	3.709
308.15 K	3.237
313.15 K	2.765

CCC(=O)N(CC)CC
Settings	viscosity [mPa·s]
298.16 K, 101 kPa	1.241

CCCCCCCC[n+]1ccccc1.F[B-](F)(F)F
101.3 kPa
Settings	viscosity [mPa·s]
293.15 K	319.7
298.15 K	233.5
303.15 K	171.9
308.15 K	134.8
313.15 K	105.7
318.15 K	81.56
323.15 K	64.89

CCCCCC[n+]1ccn(C)c1.[I-]
101 kPa
Settings	viscosity [mPa·s]
293.15 K	2633
298.15 K	1742
303.15 K	1175
308.15 K	801.8
313.15 K	563.5
318.15 K	404.7
323.15 K	278.8

CCC[N+](C)(C)C.O=S(=O)([N-]S(=O)(=O)C(F)(F)F)C(F)(F)F
101.3 kPa
Settings	viscosity [mPa·s]
293.15 K	102
298.15 K	79.4
303.15 K	63.2
308.15 K	51.1
313.15 K	42
318.15 K	35
323.15 K	29.5

CCCn1cc[n+](C)c1C.F[B-](F)(F)F
101 kPa
Settings	viscosity [mPa·s]
298.15 K	377.3
303.15 K	271.9
308.15 K	202
313.15 K	152.2
318.15 K	117.4
323.15 K	92.29

CCNc1ccccc1
Settings	viscosity
293.15 K, 101 kPa	2.282 mPa·s
298 K, 101 kPa	1.947 mPa·s
298 K, 101.3 kPa	1.952 mPa·s
298.15 K, 101 kPa	1.971 mPa·s and 1.75 mPa·s and 1.959 mPa·s
303 K, 101 kPa	1.741 mPa·s
303 K, 101.3 kPa	1.71 mPa·s
303.15 K, 100 kPa	1.742 mPa·s
308 K, 101 kPa	1.549 mPa·s
308 K, 101.3 kPa	1.559 mPa·s
308.15 K, 101.33 kPa	1.5 mPa·s
313 K, 101 kPa	1.392 mPa·s
313 K, 101.3 kPa	1.389 mPa·s
313.15 K, 101 kPa	1.405 mPa·s and 1.391 mPa·s and 1.34 mPa·s
318 K, 101 kPa	1.263 mPa·s
318 K, 101.3 kPa	1.251 mPa·s
318.15 K, 101 kPa	1.264 mPa·s
323.15 K, 101 kPa	1.146 mPa·s and 1.07 mPa·s and 1.124 mPa·s

CCOC=O
viscosity
Settings	293.15 K	298.15 K	303.15 K	308.15 K	313.15 K	318.15 K	323.15 K
100 kPa	–	0.38 mPa·s and 0.38 mPa·s	0.36 mPa·s and 0.36 mPa·s	–	0.328 mPa·s	0.31 mPa·s and 0.31 mPa·s	0.29 mPa·s and 0.29 mPa·s
101 kPa	0.418 mPa·s	0.3972 mPa·s	0.378 mPa·s	0.361 mPa·s	–	–	0.308 mPa·s
101.33 kPa	–	0.379 mPa·s	–	–	–	–	–

C[Si]1(C)O[Si](C)(C)O[Si](C)(C)O[Si](C)(C)O1
viscosity [mPa·s]
Settings	298.15 K	308.15 K	318.15 K
101 kPa	2.19	1.806	1.514
103 kPa	2.068	1.71	1.435

C[n+]1ccn(CCO)c1.O=S(=O)([O-])C(F)(F)C(F)(F)C(F)(F)C(F)(F)F
101 kPa
Settings	viscosity [mPa·s]
298.15 K	831.6
308.15 K	411.4
318.15 K	224

ClCCCl
Settings	viscosity
293.15 K, 101 kPa	0.8397 mPa·s
298 K, 101.33 kPa	0.77 mPa·s
303 K, 101.33 kPa	0.722 mPa·s
303.15 K, 101.3 kPa	0.73 mPa·s
303.15 K, 101.33 kPa	0.7295 mPa·s and 0.7295 mPa·s
308.15 K, 100 kPa	0.682 mPa·s
308.15 K, 101 kPa	0.6929 mPa·s
313 K, 101.33 kPa	0.639 mPa·s
323 K, 101.33 kPa	0.573 mPa·s
323.15 K, 101 kPa	0.5724 mPa·s

ClCCl
Settings	viscosity
293.15 K, 101 kPa	0.428 mPa·s
298 K, 101 kPa	0.433 mPa·s
298.15 K, 101.33 kPa	0.38 mPa·s and 0.406 mPa·s and 0.401 mPa·s
303.15 K, 101.3 kPa	0.394 mPa·s
303.15 K, 101.33 kPa	0.369 mPa·s
308.15 K, 101.33 kPa	0.362 mPa·s

O=S(=O)(O)O
101 kPa
Settings	viscosity [mPa·s]
293.15 K	28.7
313.15 K	16
323.15 K	12.5

C[Si]1(C)O[Si](C)(C)O[Si](C)(C)O[Si](C)(C)O1 + c1ccccc1
[1], 101 kPa
Settings	viscosity [mPa·s]
298.15 K, x1 = 0.0341	0.6224
298.15 K, x1 = 0.0699	0.6486
298.15 K, x1 = 0.1407	0.7099
298.15 K, x1 = 0.2235	0.7944
298.15 K, x1 = 0.2938	0.875
298.15 K, x1 = 0.3751	0.9814
298.15 K, x1 = 0.4689	1.113
298.15 K, x1 = 0.6211	1.363
298.15 K, x1 = 0.6777	1.466
298.15 K, x1 = 0.751	1.608
298.15 K, x1 = 0.8434	1.804
298.15 K, x1 = 0.8753	1.88
298.15 K, x1 = 0.9028	1.939
298.15 K, x1 = 0.9291	2.01
308.15 K, x1 = 0.0886	0.5768
308.15 K, x1 = 0.3517	0.818
308.15 K, x1 = 0.602	1.127
308.15 K, x1 = 0.7741	1.39
308.15 K, x1 = 0.8544	1.527
308.15 K, x1 = 0.9373	1.682
318.15 K, x1 = 0.0888	0.507
318.15 K, x1 = 0.3526	0.714
318.15 K, x1 = 0.6036	0.971
318.15 K, x1 = 0.7763	1.186
318.15 K, x1 = 0.8562	1.298
318.15 K, x1 = 0.9134	1.393

ClCCl + c1ccccc1
[1], 101.33 kPa
Settings	viscosity [mPa·s]
293.15 K, x1 = 0.1454	0.591
293.15 K, x1 = 0.259	0.559
293.15 K, x1 = 0.3662	0.531
293.15 K, x1 = 0.4451	0.513
293.15 K, x1 = 0.5158	0.498
293.15 K, x1 = 0.5932	0.484
293.15 K, x1 = 0.6593	0.471
293.15 K, x1 = 0.714	0.463
293.15 K, x1 = 0.764	0.456
298.15 K, x1 = 0.2149	0.535
298.15 K, x1 = 0.2959	0.514
298.15 K, x1 = 0.3817	0.497
298.15 K, x1 = 0.4921	0.477
298.15 K, x1 = 0.5445	0.466
298.15 K, x1 = 0.5957	0.458
298.15 K, x1 = 0.6358	0.452
298.15 K, x1 = 0.6923	0.445
303.15 K, x1 = 0.1659	0.516
303.15 K, x1 = 0.2665	0.494
303.15 K, x1 = 0.3831	0.468
303.15 K, x1 = 0.4907	0.446
303.15 K, x1 = 0.5944	0.429
303.15 K, x1 = 0.6777	0.419
303.15 K, x1 = 0.7557	0.412
303.15 K, x1 = 0.8164	0.406

CC(=O)O + c1ccncc1
[1]
Settings	viscosity [mPa·s]
293.15 K, 101 kPa, x2 = 0.104	4.421
293.15 K, 101 kPa, x2 = 0.2205	5.037
293.15 K, 101 kPa, x2 = 0.383	3.024
293.15 K, 101 kPa, x2 = 0.401	2.885
293.15 K, 101 kPa, x2 = 0.481	2.188
293.15 K, 101 kPa, x2 = 0.579	1.762
293.15 K, 101 kPa, x2 = 0.738	1.289
303.15 K, 101 kPa, x1 = 0.135	0.9842
303.15 K, 101 kPa, x1 = 0.2599	1.139
303.15 K, 101 kPa, x1 = 0.3756	1.346
303.15 K, 101 kPa, x1 = 0.4837	1.648
303.15 K, 101 kPa, x1 = 0.5841	2.075
303.15 K, 101 kPa, x1 = 0.6781	2.704
303.15 K, 101 kPa, x1 = 0.766	3.398
303.15 K, 101 kPa, x1 = 0.8509	3.624
303.15 K, 101 kPa, x1 = 0.9266	2.558
308.15 K, 101.33 kPa, x2 = 0.15	3.2
308.15 K, 101.33 kPa, x2 = 0.2	3.17
308.15 K, 101.33 kPa, x2 = 0.25	2.887
308.15 K, 101.33 kPa, x2 = 0.3	2.55
308.15 K, 101.33 kPa, x2 = 0.4	1.928
308.15 K, 101.33 kPa, x2 = 0.6	1.27
308.15 K, 101.33 kPa, x2 = 0.8	1.052
313.15 K, 101.33 kPa, x1 = 0.5	1.68
313.15 K, 101.33 kPa, x1 = 0.8	2.91
313.15 K, 101.33 kPa, x1 = 0.825	2.93
313.15 K, 101.33 kPa, x1 = 0.85	2.85
318.15 K, 101.33 kPa, x2 = 0.15	2.35
318.15 K, 101.33 kPa, x2 = 0.2	2.38
318.15 K, 101.33 kPa, x2 = 0.25	2.2
318.15 K, 101.33 kPa, x2 = 0.3	1.985
318.15 K, 101.33 kPa, x2 = 0.4	1.52
318.15 K, 101.33 kPa, x2 = 0.6	1.07
318.15 K, 101.33 kPa, x2 = 0.8	0.896

CCOC(N)=O + c1ccncc1
[1], 298.15 K, 101 kPa
Settings	viscosity [mPa·s]
x1 = 0.0815	1.07
x1 = 0.1351	1.202
